# Assay results from patent publication US20070281992A1, “COMBINATION OF GYRASE B INHIBITORS AND PROTEIN SYNTHESIS INHIBITORS AND USES THEREOF” (priority 2006, published 2007).
# Like-named read-outs stand apart in the source and are kept apart here.
# Legend:
# [1] = system: Enterococcus faecalis (ATCC 29212); conditions: E. faecalis ATCC 29212; accepted quality control range; cited from earlier work
# [2] = system: Methicillin-Susceptible Staphylococcus aureus Isolates; experiment: MIC assay (NCCLS broth dilution), MSSA clinical isolates; format: cell-based; conditions: for MIC Range / MIC50 / MIC90: 52 MSSA isolates, combinations at 2.5:1, given as NB/partner; for MIC Range: Mueller Hinton II Broth; for MIC / MIC50 / MIC90: Staphylococcus aureus; for MIC: read-out: Minimal Inhibitory Concentration
# Method: (§1) Antibiotics: novobiocin, tetracycline, minocycline, oxacillin, and vancomycin were all purchased from Sigma-Aldrich. Linezolid was obtained from Pfizer, Inc. Novobiocin/tetracycline and novobiocin/minocycline were tested in a 2.5:1 ratio to mimic the serum levels. (Vavra, J. J., 1967, Development of resistance to novobiocin, tetracycline, and novobiocin-tetracycline combinations in Staphylococcus aureus populations, J. Bacteriol 93(3):801). Compounds were tested across a concentration range consisting of 11 two-fold serial dilutions of test agent.
# (§2) Stock solutions were prepared in sterile deionized water; novobiocin stock concentration was 1600 μg/mL and all other drugs stock solutions were prepared at 640 μg/mL. The stock solutions were allowed to sit at room temperature for one hour to auto-sterilize prior to use in the test. All compounds were in solution in water. The control agent was vancomycin hydrochloride, Sigma Chemical Lot # 015K0825.
# (§3) The test organisms for the assay were 52 MSSA, 52 MRSA, 8 VISA, 7 VISE, and 3 LRSA isolates. Quality control strains included Staphylococcus aureus 0100 (ATCC 29213) and Enterococcus faecalis (ATCC 29212).
# (§4) The MIC assay was performed according to published NCCLS guidelines. (National Committee for Clinical Laboratory Standards, Methods for Dilution Antimicrobial Susceptibility Tests for Bacteria that Grow Aerobically; Approved Standard-Sixth Edition, NCCLS Document M7-A6 [ISBN 1-56238-486-4], NCCLS, 940 West Valley Road, Suite 1400, Wayne, Pa. 19087-1898 USA, 2003). The test medium was Mueller Hinton II Broth for all organisms.
# [3] = system: Staphylococcus aureus 0100 (ATCC 29213); experiment: MIC assay, quality control strain S. aureus ATCC 29213; format: cell-based; conditions: ATCC29213, S. aureus ATCC 29213, repeat runs 22FEB06-09MAR06, combinations at 2.5:1, read-out: Minimal Inhibitory Concentration, quality control
# Method: as §1, §2, §3, §4
# [4] = system: Staphylococcus aureus 0100 (ATCC 29213); conditions: S. aureus ATCC 29213; accepted quality control range; cited from earlier work
# [5] = MSSA isolate 1728, retest 09MAR06
smiles,measurement,setting,value
"CC(=O)NC[C@H]1CN(c2ccc(N3CCOCC3)c(F)c2)C(=O)O1 [LZD, linezolid]",CLSI QC Range (MIC),[1],1 to 4 µg/mL
same,MIC Range,[2],1 to 4 µg/mL
same,MIC,"[2]; MSSA isolate 133, 03MAR06",2 µg/mL
same,MIC,"[2]; MSSA isolate 134, 03MAR06",2 µg/mL
same,MIC,"[2]; MSSA isolate 135, 03MAR06",4 µg/mL
same,MIC,"[2]; MSSA isolate 753, 22FEB06",2 µg/mL
same,MIC,"[2]; MSSA isolate 754, 22FEB06",4 µg/mL
same,MIC,"[2]; MSSA isolate 754, 24FEB06",4 µg/mL
same,MIC,"[2]; MSSA isolate 755, 22FEB06",2 µg/mL
same,MIC,"[2]; MSSA isolate 756, 03MAR06",2 µg/mL
same,MIC,"[2]; MSSA isolate 779, 22FEB06",2 µg/mL
same,MIC,"[2]; MSSA isolate 780, 03MAR06",4 µg/mL
same,MIC,"[2]; MSSA isolate 781, 03MAR06",2 µg/mL
same,MIC,"[2]; MSSA isolate 782, 22FEB06",2 µg/mL
same,MIC,"[2]; MSSA isolate 783, 22FEB06",2 µg/mL
same,MIC,"[2]; MSSA isolate 784, 22FEB06",2 µg/mL
same,MIC,"[2]; MSSA isolate 785, 22FEB06",2 µg/mL
same,MIC,"[2]; MSSA isolate 786, 22FEB06",4 µg/mL
same,MIC,"[2]; MSSA isolate 787, 22FEB06",2 µg/mL
same,MIC,"[2]; MSSA isolate 788, 22FEB06",2 µg/mL
same,MIC,"[2]; MSSA isolate 789, 24FEB06",4 µg/mL
same,MIC,"[2]; MSSA isolate 790, 24FEB06",4 µg/mL
same,MIC,"[2]; MSSA isolate 791, 24FEB06",2 µg/mL
same,MIC,"[2]; MSSA isolate 792, 03MAR06",2 µg/mL
same,MIC,"[2]; MSSA isolate 793, 24FEB06",4 µg/mL
same,MIC,"[2]; MSSA isolate 794, 24FEB06",4 µg/mL
same,MIC,"[2]; MSSA isolate 994, 22FEB06",2 µg/mL
same,MIC,"[2]; MSSA isolate 995, 03MAR06",2 µg/mL
same,MIC,"[2]; MSSA isolate 996, 22FEB06",2 µg/mL
same,MIC,"[2]; MSSA isolate 997, 22FEB06",2 µg/mL
same,MIC,"[2]; MSSA isolate 998, 03MAR06",2 µg/mL
same,MIC,"[2]; MSSA isolate 999, 22FEB06",2 µg/mL
same,MIC,"[2]; MSSA isolate 1000, 24FEB06",2 µg/mL
same,MIC,"[2]; MSSA isolate 1001, 24FEB06",2 µg/mL
same,MIC,"[2]; MSSA isolate 1002, 24FEB06",2 µg/mL
same,MIC,"[2]; MSSA isolate 1003, 03MAR06",2 µg/mL
same,MIC,"[2]; MSSA isolate 1005, 24FEB06",2 µg/mL
same,MIC,"[2]; MSSA isolate 1006, 24FEB06",2 µg/mL
same,MIC,"[2]; MSSA isolate 1007, 24FEB06",4 µg/mL
same,MIC,"[2]; MSSA isolate 1008, 24FEB06",2 µg/mL
same,MIC,"[2]; MSSA isolate 1009, 24FEB06",4 µg/mL
same,MIC,"[2]; MSSA isolate 1131, 24FEB06",2 µg/mL
same,MIC,"[2]; MSSA isolate 1132, 03MAR06",2 µg/mL
same,MIC,"[2]; MSSA isolate 1133, 24FEB06",2 µg/mL
same,MIC,"[2]; MSSA isolate 1134, 24FEB06",2 µg/mL
same,MIC,"[2]; MSSA isolate 1654, 03MAR06",2 µg/mL
same,MIC,"[2]; MSSA isolate 1656, 03MAR06",2 µg/mL
same,MIC,"[2]; MSSA isolate 1662, 03MAR06",2 µg/mL
same,MIC,"[2]; MSSA isolate 1663, 03MAR06",4 µg/mL
same,MIC,"[2]; MSSA isolate 1666, 03MAR06",4 µg/mL
same,MIC,"[2]; MSSA isolate 1667, 03MAR06",4 µg/mL
same,MIC,"[2]; MSSA isolate 1668, 03MAR06",4 µg/mL
same,MIC,"[2]; MSSA isolate 1671, 03MAR06",2 µg/mL
same,MIC,"[2]; MSSA isolate 1728, 03MAR06",1 µg/mL
same,MIC,[2]; [5],1 µg/mL
same,MIC50,[2],2 µg/mL
same,MIC90,[2],4 µg/mL
same,MIC,[3],4 µg/mL
same,CLSI QC Range (MIC),[4],1 to 4 µg/mL
"Cc1onc(-c2ccccc2)c1C(=O)N[C@@H]1C(=O)N2[C@@H]1SC(C)(C)[C@@H]2C(=O)O [OX, oxacillin]",CLSI QC Range (MIC),[1],8 to 32 µg/mL
same,MIC Range,[2],.12 to .5 µg/mL
same,MIC,"[2]; MSSA isolate 133, 03MAR06",0.12 µg/mL
same,MIC,"[2]; MSSA isolate 134, 03MAR06",0.25 µg/mL
same,MIC,"[2]; MSSA isolate 135, 03MAR06",0.25 µg/mL
same,MIC,"[2]; MSSA isolate 753, 22FEB06",0.25 µg/mL
same,MIC,"[2]; MSSA isolate 754, 22FEB06",0.25 µg/mL
same,MIC,"[2]; MSSA isolate 754, 24FEB06",0.25 µg/mL
same,MIC,"[2]; MSSA isolate 755, 22FEB06",0.25 µg/mL
same,MIC,"[2]; MSSA isolate 756, 03MAR06",0.25 µg/mL
same,MIC,"[2]; MSSA isolate 779, 22FEB06",0.12 µg/mL
same,MIC,"[2]; MSSA isolate 780, 03MAR06",0.25 µg/mL
same,MIC,"[2]; MSSA isolate 781, 03MAR06",0.25 µg/mL
same,MIC,"[2]; MSSA isolate 782, 22FEB06",0.25 µg/mL
same,MIC,"[2]; MSSA isolate 783, 22FEB06",0.25 µg/mL
same,MIC,"[2]; MSSA isolate 784, 22FEB06",0.25 µg/mL
same,MIC,"[2]; MSSA isolate 785, 22FEB06",0.12 µg/mL
same,MIC,"[2]; MSSA isolate 786, 22FEB06",0.25 µg/mL
same,MIC,"[2]; MSSA isolate 787, 22FEB06",0.25 µg/mL
same,MIC,"[2]; MSSA isolate 788, 22FEB06",0.25 µg/mL
same,MIC,"[2]; MSSA isolate 789, 24FEB06",0.25 µg/mL
same,MIC,"[2]; MSSA isolate 790, 24FEB06",0.25 µg/mL
same,MIC,"[2]; MSSA isolate 791, 24FEB06",0.25 µg/mL
same,MIC,"[2]; MSSA isolate 792, 03MAR06",0.12 µg/mL
same,MIC,"[2]; MSSA isolate 793, 24FEB06",0.25 µg/mL
same,MIC,"[2]; MSSA isolate 794, 24FEB06",0.25 µg/mL
same,MIC,"[2]; MSSA isolate 994, 22FEB06",0.25 µg/mL
same,MIC,"[2]; MSSA isolate 995, 03MAR06",0.12 µg/mL
same,MIC,"[2]; MSSA isolate 996, 22FEB06",0.25 µg/mL
same,MIC,"[2]; MSSA isolate 997, 22FEB06",0.25 µg/mL
same,MIC,"[2]; MSSA isolate 998, 03MAR06",0.12 µg/mL
same,MIC,"[2]; MSSA isolate 999, 22FEB06",0.25 µg/mL
same,MIC,"[2]; MSSA isolate 1000, 24FEB06",0.25 µg/mL
same,MIC,"[2]; MSSA isolate 1001, 24FEB06",0.25 µg/mL
same,MIC,"[2]; MSSA isolate 1002, 24FEB06",0.5 µg/mL
same,MIC,"[2]; MSSA isolate 1003, 03MAR06",0.25 µg/mL
same,MIC,"[2]; MSSA isolate 1005, 24FEB06",0.25 µg/mL
same,MIC,"[2]; MSSA isolate 1006, 24FEB06",0.25 µg/mL
same,MIC,"[2]; MSSA isolate 1007, 24FEB06",0.25 µg/mL
same,MIC,"[2]; MSSA isolate 1008, 24FEB06",0.25 µg/mL
same,MIC,"[2]; MSSA isolate 1009, 24FEB06",0.5 µg/mL
same,MIC,"[2]; MSSA isolate 1131, 24FEB06",0.5 µg/mL
same,MIC,"[2]; MSSA isolate 1132, 03MAR06",0.12 µg/mL
same,MIC,"[2]; MSSA isolate 1133, 24FEB06",0.5 µg/mL
same,MIC,"[2]; MSSA isolate 1134, 24FEB06",0.25 µg/mL
same,MIC,"[2]; MSSA isolate 1654, 03MAR06",0.12 µg/mL
same,MIC,"[2]; MSSA isolate 1656, 03MAR06",0.25 µg/mL
same,MIC,"[2]; MSSA isolate 1662, 03MAR06",0.25 µg/mL
same,MIC,"[2]; MSSA isolate 1663, 03MAR06",0.25 µg/mL
same,MIC,"[2]; MSSA isolate 1666, 03MAR06",0.25 µg/mL
same,MIC,"[2]; MSSA isolate 1667, 03MAR06",0.25 µg/mL
same,MIC,"[2]; MSSA isolate 1668, 03MAR06",0.25 µg/mL
same,MIC,"[2]; MSSA isolate 1671, 03MAR06",0.25 µg/mL
same,MIC,"[2]; MSSA isolate 1728, 03MAR06",0.25 µg/mL
same,MIC,[2]; [5],0.12 µg/mL
same,MIC50,[2],0.25 µg/mL
same,MIC90,[2],0.25 µg/mL
same,CLSI QC Range (MIC),[4],0.12 to 0.5 µg/mL
